“And” between values parts separate entries of the source, which are not always exact repeats. Identical values can stand only once. Like-named read-outs stand apart in the source and are kept apart here.
How the values were obtained:
[1] = test system: L1210 cells; test: Dark cytotoxicity in L1210 cells (plates wrapped in aluminum foil); format: cell-based
Description: The above compounds were also tested for dark toxicity. Dark toxicity refers to the toxicity of the drug to cells in the absence of light. This toxicity is, therefore, not due to singlet oxygen mediated cellular damage.
(§1) Phototoxicity was determined with L11210 cells in the presence of the compound as follows: the L1210 cells were exposed to varying concentrations of the compounds in 96-well microtiter plates for one hour at 37° C. and 5% CO2. No fetal calf serum (FCS) was added at this time. The plate was then illuminated for one hour after which a 10% aqueous FCS solution was added to the wells. The plates were then returned to the CO2 incubator overnight. After incubation, the cells were assayed for viability using the MTT assay (Mossman, T. J. Immunol. Meth. 1983, 65, 55).
Dark cytotoxicity was determined while the plates were wrapped in aluminum foil while under the light source.

[2] = test system: L1210 cells; test: Phototoxicity in L1210 cells, MTT viability assay; format: cell-based; settings: for LD50: phototoxicity, L1210 cells
Description: The above described compounds were tested in vitro for phototoxicity and dark toxicity in L1210 cells as described in the Example section below. Twenty four compounds which were tested for cytotoxicity are listed in Table 3 below along with BPD-MA.
as §1

[3] = 1 h exposure without FCS, 1 h illumination, MTT

Row | Compound | LD50dark [1] | LD20dark ([1]; L1210 cells, absence of light) [ng/mL] | LD50 [2, 3] | LD50 ([2]; Table 4) [ng/mL] | times more potent than BPD-MA ([2]; fold potency based on LD50) | times more potent than HpD ([2]; fold potency based on LD50) | times more potent than Photofrin™ ([2]; fold potency based on LD50) | LD50 ([2]; 1 h exposure without FCS, 1 h illumination, MTT, listed as diphenyl-2,3-dihydroxychlorin) [ng/mL] | LD50dark ([1]; L1210 cells, absence of light) [ng/mL]
1 | Cc1ccc(-c2c3nc(c(-c4ccc(C)cc4)c4ccc([nH]4)c(-c4ccc(C)cc4)c4nc(c(-c5ccc(C)cc5)c5ccc2[nH]5)C(O)C4O)C=C3)cc1 (stereo not shown) [Compound 21, T(p-CH3)PC(OH)2] | 15000 ng/mL | 5000 | 9.94 M and 7000 ng/mL | 7000 | – | – | – | – | –
2 | O=S(=O)(O)c1ccc(-c2c3nc(c(-c4ccc(S(=O)(=O)O)cc4)c4ccc([nH]4)c(-c4ccc(S(=O)(=O)O)cc4)c4nc(c(-c5ccc(S(=O)(=O)O)cc5)c5ccc2[nH]5)C(O)C4O)C=C3)cc1 (stereo not shown) [Compound 23, T(p-SO3H)PC(OH)2] | >>20000 ng/mL | >20000 | 1.11 M and 1000 ng/mL | 1000 | – | – | – | – | –
3 | T(p-OCH3)PC(OH)2 [Compound 14] | >20000 ng/mL | 9000 | 7.81 M and 6000 ng/mL | 6000 | – | – | – | – | –
4 | Oc1cccc(-c2c3nc(c(-c4cccc(O)c4)c4ccc([nH]4)c(-c4cccc(O)c4)c4nc(c(-c5cccc(O)c5)c5ccc2[nH]5)C(O)C4O)C=C3)c1 (stereo not shown) [Compound 11, T(m-OH)PC(OH)2] | 12500 ng/mL | 10000 | 0.0211 M and 15 ng/mL | 15 | – | – | – | – | –
5 | COc1cc(OC)cc(-c2c3nc(c(-c4cc(OC)cc(OC)c4)c4ccc([nH]4)c(-c4cc(OC)cc(OC)c4)c4nc(c(-c5cc(OC)cc(OC)c5)c5ccc2[nH]5)C(O)C4O)C=C3)c1 (stereo not shown) [Compound 16, T(m,m′-OCH3)PC(OH)2] | 12000 ng/mL | 5000 | 2.25 M and 2000 ng/mL | 2000 | – | – | – | – | –
6 | COc1cc(OC)c(-c2c3nc(c(-c4c(OC)cc(OC)cc4OC)c4ccc([nH]4)c(-c4c(OC)cc(OC)cc4OC)c4nc(c(-c5c(OC)cc(OC)cc5OC)c5ccc2[nH]5)C(O)C4O)C(O)C3O)c(OC)c1 (stereo not shown) [Compound 30, T(o,p,o′-OCH3)PB(OH)4] | 18000 ng/mL | 1200 | 18 ng/mL | 18 | – | – | – | – | –
7 | O=[N+]([O-])c1ccc(-c2c3nc(c(-c4ccccc4)c4ccc([nH]4)c(-c4ccccc4)c4nc(c(-c5ccccc5)c5ccc2[nH]5)C=C4)C(O)C3O)cc1 (stereo not drawn) [Compound 28, meso-5-(p-nitrophenyl)-10,15,20-triphenyl-2,3-dihydroxychlorin] | 18000 ng/mL | 2000 | 2.42 M and 2000 ng/mL | 2000 | – | – | – | – | –
8 | O=[N+]([O-])c1cccc(-c2c3nc(c(-c4cccc([N+](=O)[O-])c4)c4ccc([nH]4)c(-c4cccc([N+](=O)[O-])c4)c4nc(c(-c5cccc([N+](=O)[O-])c5)c5ccc2[nH]5)C(O)C4O)C=C3)c1 (stereo not shown) [Compound 4, T(m-NO2)PC(OH)2] | 15000 ng/mL | 4500 | 5.43 M and 4500 ng/mL | 4500 | – | – | – | – | –
9 | OC1c2cc3ccc([nH]3)c(-c3ccccc3)c3nc(cc4ccc([nH]4)c(-c4ccccc4)c(n2)C1O)C=C3 (stereo not shown) [Compound 25, diphenyl-2,3-dihydroxychlorin] | 5000 ng/mL | 1500 | 0.0024 M and 1.2 ng/mL | 1.2 | 10 | 700 | 450 | 1.2 | –
10 | OC1c2nc(c(-c3cccc(F)c3)c3ccc([nH]3)c(-c3cccc(F)c3)c3nc(c(-c4cccc(F)c4)c4ccc([nH]4)c2-c2cccc(F)c2)C=C3)C1O (stereo not shown) [Compound 7, T(m-F)PC(OH)2] | 6000 ng/mL | 1500 | 6.87 M and 5000 ng/mL | 5000 | – | – | – | – | –
11 | OC1c2nc(c(-c3cccc(Br)c3)c3ccc([nH]3)c(-c3cccc(Br)c3)c3nc(c(-c4cccc(Br)c4)c4ccc([nH]4)c2-c2cccc(Br)c2)C=C3)C1O (stereo not shown) [Compound 6, T(m-Br)PC(OH)2] | 4000 ng/mL | 1500 | 4.15 M and 4000 ng/mL | 4000 | – | – | – | – | –
12 | COc1cc(-c2c3nc(c(-c4cc(OC)c(OC)c(OC)c4)c4ccc([nH]4)c(-c4cc(OC)c(OC)c(OC)c4)c4nc(c(-c5cc(OC)c(OC)c(OC)c5)c5ccc2[nH]5)C(O)C4O)C=C3)cc(OC)c1OC (stereo not shown) [Compound 18, T(m,p,m′-OCH3)PC(OH)2] | 20000 ng/mL | 7500 | 0.0198 M and 20 ng/mL | 20 | – | – | – | – | –
13 | Oc1ccc(-c2c3nc(c(-c4ccc(O)cc4)c4ccc([nH]4)c(-c4ccc(O)cc4)c4nc(c(-c5ccc(O)cc5)c5ccc2[nH]5)C(O)C4O)C=C3)cc1 (stereo not shown) [Compound 10, T(p-OH)PC(OH)2] | 15000 ng/mL | 5000 | 4.92 M and 3500 ng/mL | 3500 | – | – | – | – | –
14 | Cc1cc(C)c(-c2c3nc(c(-c4c(C)cc(C)cc4C)c4ccc([nH]4)c(-c4c(C)cc(C)cc4C)c4nc(c(-c5c(C)cc(C)cc5C)c5ccc2[nH]5)C(O)C4O)C=C3)c(C)c1 (stereo not shown) [Compound 22, T(o,p,o′-CH3)PC(OH)2] | 18000 ng/mL | 7500 | 12.3 M and 10000 ng/mL | 10000 | – | – | – | – | –
15 | OC1c2nc(c(-c3ccccc3)c3ccc([nH]3)c(-c3ccccc3)c3nc(c(-c4ccccc4)c4ccc([nH]4)c2-c2ccccc2)C=C3)C1O (stereo not shown) [Compound 3, H2TPC(OH)2] | 19000 ng/mL | 7000 | 2.78 M and 1800 ng/mL | 1800 | – | – | – | – | –
16 | Oc1ccc(-c2c3nc(c(-c4ccccc4)c4ccc([nH]4)c(-c4ccccc4)c4nc(c(-c5ccccc5)c5ccc2[nH]5)C=C4)C(O)C3O)cc1 (stereo not drawn) [Compound 27, meso-5-(p-hydroxyphenyl)-10,15,20-triphenyl-2,3-dihydroxychlorin] | 9000 ng/mL | 2000 | 0.0211 M and 14 ng/mL | 14 | – | – | – | – | –
17 | COc1cc(-c2c3nc(c(-c4ccc(O)c(OC)c4)c4ccc([nH]4)c(-c4ccc(O)c(OC)c4)c4nc(c(-c5ccc(O)c(OC)c5)c5ccc2[nH]5)C(O)C4O)C=C3)ccc1O (stereo not shown) [Compound 17, T(m-OCH3,p-OH)PC(OH)2] | 4500 ng/mL | 500 | 0.0361 M and 30 ng/mL | 30 | – | – | – | – | –
18 | T(p-OCOEt)PC(OH)2 [Compound 13] | 20000 ng/mL | 8000 | – | 1000 | – | – | – | – | –
19 | OC1c2nc(c(-c3c(F)c(F)c(F)c(F)c3F)c3ccc([nH]3)c(-c3c(F)c(F)c(F)c(F)c3F)c3nc(c(-c4c(F)c(F)c(F)c(F)c4F)c4ccc([nH]4)c2-c2c(F)c(F)c(F)c(F)c2F)C=C3)C1O (stereo not shown) [Compound 9, TF5PC(OH)2] | 12000 ng/mL | 5000 | 1.79 M and 1800 ng/mL | 100 | – | – | – | – | –
20 | OC1c2nc(c(-c3ccccc3)c3ccc([nH]3)c(-c3ccccc3)c3nc(c(-c4ccccc4)c4ccc([nH]4)c2-c2ccccc2)C(O)C3O)C1O (stereo not shown) [Compound 29, H2TPB(OH)4] | 7500 ng/mL | 2500 | 1.03 M and 700 ng/mL | 700 | – | – | – | – | –
21 | COc1cccc(-c2c3nc(c(-c4cccc(OC)c4)c4ccc([nH]4)c(-c4cccc(OC)c4)c4nc(c(-c5cccc(OC)c5)c5ccc2[nH]5)C(O)C4O)C=C3)c1 (stereo not shown) [Compound 15, T(m-OCH3)PC(OH)2] | – | – | 1.3 M and 1000 ng/mL | – | – | – | – | – | –
22 | OC1c2nc(c(-c3ccccc3F)c3ccc([nH]3)c(-c3ccccc3F)c3nc(c(-c4ccccc4F)c4ccc([nH]4)c2-c2ccccc2F)C=C3)C1O (stereo not shown) [Compound 8, T(o-F)PC(OH)2] | 15000 ng/mL | 5000 | 4.17 M and 3000 ng/mL | 3000 | – | – | – | – | –
23 | CC(C)(C)c1ccc(-c2c3nc(c(-c4ccc(C(C)(C)C)cc4)c4ccc([nH]4)c(-c4ccc(C(C)(C)C)cc4)c4nc(c(-c5ccc(C(C)(C)C)cc5)c5ccc2[nH]5)C(O)C4O)C=C3)cc1 (stereo not shown) [Compound 24, T(p-t-Bu)PC(OH)2] | 7000 ng/mL | 2000 | 6.88 M and 6000 ng/mL | 6000 | – | – | – | – | –
24 | OC1c2nc(c(-c3ccc(Br)cc3)c3ccc([nH]3)c(-c3ccc(Br)cc3)c3nc(c(-c4ccc(Br)cc4)c4ccc([nH]4)c2-c2ccc(Br)cc2)C=C3)C1O (stereo not shown) [Compound 5, T(p-Br)PC(OH)2] | 8000 ng/mL | 1900 | 6.22 M and 6000 ng/mL | 6000 | – | – | – | – | –
25 | COC(=O)c1ccc(-c2c3nc(c(-c4ccc(C(=O)OC)cc4)c4ccc([nH]4)c(-c4ccc(C(=O)OC)cc4)c4nc(c(-c5ccc(C(=O)OC)cc5)c5ccc2[nH]5)C(O)C4O)C=C3)cc1 (stereo not shown) [Compound 12, T(p-CO2Me)PC(OH)2] | – | 3000 | 0.136 M and 120 ng/mL | 120 | – | – | – | – | 15000

— patent US7022843B1, “β,β′-dihydroxy meso-substituted chlorins, isobacteriochlorins, and bacteriochlorins” (priority 1999, dated 2006)
